Values of other authors as cited in article PMC5493349, “Quaternary structure is an essential component that contributes to the sophisticated allosteric regulation mechanism in a key enzyme from Mycobacterium tuberculosis” (PLoS ONE, 2017).

Columns and labels:
Conditions in all cases: cited from earlier work
[1] = molecular target: T1, wild-type MtuDAH7PS (Mycobacterium tuberculosis, UniProt O53512)
[2] = molecular target: T1, wild-type MtuDAH7PS; remark: listed apart in the source
[3] = molecular target: T1, wild-type MtuDAH7PS; remark: listed apart in the source

T1 sequence (O53512 whole entry): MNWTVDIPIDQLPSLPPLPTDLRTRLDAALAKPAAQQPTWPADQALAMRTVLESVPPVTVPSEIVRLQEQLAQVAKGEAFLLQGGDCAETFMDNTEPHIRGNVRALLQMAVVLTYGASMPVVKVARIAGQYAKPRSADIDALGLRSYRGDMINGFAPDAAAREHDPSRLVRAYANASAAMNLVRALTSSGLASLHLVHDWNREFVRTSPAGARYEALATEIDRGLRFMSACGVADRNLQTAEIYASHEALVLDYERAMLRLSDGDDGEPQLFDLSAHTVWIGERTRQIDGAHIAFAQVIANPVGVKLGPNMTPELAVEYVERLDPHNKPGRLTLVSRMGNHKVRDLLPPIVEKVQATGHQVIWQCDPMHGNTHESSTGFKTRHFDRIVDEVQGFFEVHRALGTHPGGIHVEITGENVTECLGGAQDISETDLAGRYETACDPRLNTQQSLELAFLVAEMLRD

For `N[C@@H](Cc1c[nH]c2ccccc12)C(=O)O` [Trp, L-Trp], the “inhibition of wild type MtuDAH7PS by Trp alone” value [1] is listed as “not inhibitory” and the “reduction in Kd of Trp after pre-incubation with Phe” value [2] is listed as 4 fold.

For `O=C[C@H](O)[C@H](O)COP(=O)(O)O` [E4P, erythrose 4-phosphate], the E4P0.5 [3] is listed as 382 µM.
